Assay results as given in patent publication US12297163B2, “Glycerol derivative, preparation method therefor, and immunomodulator comprising same as effective ingredient” (ENZYCHEM LIFESCIENCES CORPORATION, priority 2018, dated 2025).

Experiments:
STAT3 [1] = test: STAT3 activity, pGL4.47 [luc2P/SIE/Hygro] luciferase reporter in RAW264.7 cells; assay type: cell-based, mouse
Experimental: Thereafter, the culture supernatant was removed for each well, and the remaining cells were lysed with a cell lysis buffer, and then cell lysate was recovered. 90 μl of luciferase reagent was mixed with 10 μl of the recovered cell lysate, and the degree of fluorescence was confirmed using a luminometer.

CXCL8 (IL-8) = CXCL8 (IL-8) expression in Gemcitabine-stimulated THP-1 cells (ELISA); assay type: cell-based, human
Experimental: Thereafter 1.5 ml of the culture supernatant was collected for each well and centrifuged (at 3000 rpm, 5 minutes) to recover the supernatant.

HL-60 cells = test: Migration of HL-60 cell line using Transwell; assay type: cell-based, human
Experimental: Then, the culture solution was treated with a glycerol derivative compounds of the type shown in Table 7 below for 1 hour and then was treated with Gemcitabine (2 μg/ml) of a cell stimulator, and subsequent further incubation was conducted for 24 hours. Thereafter 1.5 ml of the culture supernatant was collected for each well and centrifuged (at 3000 rpm, 5 minutes) to recover the supernatant. […] The day before Transmigration assay was carried out, a 1× Lamin I solution was treated in the upper Invasion Chamber and coated. […] Thereafter the upper chamber was removed, and the cells were attached to the bottom of the lower chamber by a centrifuge, and then the supernatant was removed. Cell dissociation/Calcein-AM solution was added and reacted for 1 hour. Then, the value obtained using a fluorescence spectroscopy was calculated by converting the number of cells.

IL-6 = test: LPS-induced IL-6 secretion in RAW264.7 cells (ELISA); assay type: cell-based, mouse; details: for IL-6 concentration (average ± deviation): then LPS 1 μg/ml, 24 hours
Experimental: In DMEM (Hyclone, Thermo Scientific) medium to which 10% Fetal Bovine Serum was added, RAW264.7 cells, a mouse macrophage family, were suspended at a concentration of 1×10^5 cells/ml, and the cells were maintained in a 5% CO2 humidified incubator at 37° C., and cultured. The cultured RAW264.7 cells were inoculated into a 48 well plate by 5×10^4 cells/ml and stabilized for 15 hours. Then, the culture solution was treated with a glycerol derivative compounds of the type shown in Table 2 and 3 below for 1 hour and then was treated with 1 μg/ml of Lipopolysaccaride (LPS) of a cell stimulator, and subsequent further incubation was conducted for 24 hours. Thereafter 0.5 ml of the culture supernatant was collected for each well and centrifuged (at 3000 rpm, 5 minutes) to recover the supernatant. The IL-6 level in the recovered supernatant was measured according to the manual provided by the Mouse IL-6 ELISA set (BD Biosciences). The day before ELISA was carried out, the IL-6 capture antibody was diluted in phosphate buffered saline, coated on a microwell, and then stored at 4° C. overnight. Each well was washed three times with a washing buffer solution and then blocked with 2% Bovine Serum Albumin (BSA) for 1 hour at room temperature. After washing with buffer solution three times, 100 μl of sample was dispensed into each well and left at room temperature for 2 hours. Detection antibody which was washed 3 times with washing buffer solution and diluted was dispensed into each well and allowed to react at room temperature for 1 hour and left at room temperature for 1 hour. Thereafter, the secondary HRP conjugated antibody was reacted at room temperature for 30 minutes, washed three times with a washing buffer solution, and treated with 50 μl of stop solution for each well, and then the optical density was measured at 450 nm with an ELISA microplate leader.

STAT3 [2] = test: IL-6-induced STAT3 activity, SEAP expression in HEK-Blue IL-6 cells; assay type: cell-based; details: for STAT3 activity SEAP expression(%) (average ± deviation): negative control = 100
Experimental: Two experiments were conducted as a method of confirming STAT3 activity. First, HEK-Blue™ IL-6 cells were used to confirm the degree of activity by STAT3-induced SEAP (secreted embryonic alkaline phosphatase) expression. Second, this is a method to check the degree of STAT3 activity by injecting the pGL4.47 [luc2P/SIE/Hygro] vector containing the sis-inducible element that binds to STAT3 into RAW264.7 cells. Table 4 below confirmed the STAT3 activity inhibitory ability of the derivative compound of the present invention using the first method.
In DMEM (Hyclone, Thermo Scientific) medium to which 10% Fetal Bovine Serum was added, HEK-Blue™ IL-6 cells were cultured at a concentration of 1×10^5 cells/ml, and the cells were maintained in a 5% CO2 humidified incubator at 37° C., and cultured. The cultured HEK-Blue™ IL-6 cells were inoculated by 1×10^5 cells/ml, and treat with a glycerol derivative compounds of the type shown in Table 3 below in the culture solution for 1 hour, and then IL-6 (5 ng/ml) was further incubated for 24 hours for STAT3 activity. Thereafter, the culture supernatant was collected for each well and centrifuged (at 3000 rpm, 5 minutes) to recover the supernatant. The SEAP expression level in the recovered supernatant was mixed with Quanti blue reagent and the supernatant at a ratio of 1:10 and left at 37° C. for about 30 minutes. Then, the SEAP concentration was confirmed at 650 nm wavelength using a spectrophotometer, and the results thereof are shown in Table 4 below.

IL-4 = test: PKC activator-induced IL-4 secretion in EL-4 cells (ELISA); assay type: cell-based, mouse; details: Table 11, sample 100 μg/ml for 2 hours, then PKC activator, 18 hours
Experimental: Thereafter 0.5 ml of the culture supernatant was collected for each well and centrifuged (at 3000 rpm, 5 minutes) to recover the supernatant. […] Thereafter, the secondary HRP conjugated antibody was reacted at room temperature for 30 minutes, washed three times with a washing buffer solution, and treated with 50 μl of stop solution for each well, and then the optical density was measured at 450 nm with an ELISA microplate leader.

STAT6 = test: IL-4-induced STAT6 activity, pGL4-STAT6 luciferase reporter in A549 cells; assay type: cell-based
Experimental: In DMEM (Dulbecco Modified Eagle Medium, Hyclone, Thermo Scientific) medium to which 10% Fetal Bovine Serum was added, A549 cells were subcultured at a concentration of 1×10^5 cells/ml, and the cells were maintained in a 5% CO2 humidified incubator at 37° C., and cultured. The cultured A549 cells were inoculated into a 48 well plate by 1×10^5 cells/ml and stabilized for 18 hours. Thereafter, pGL4-STAT6 reporter vector containing a STAT6 binding promoter portion was mixed with Attractene to induce complex formation at room temperature for 15 minutes. This complex was treated with the cells and then further incubated for 24 hours. Thereafter, the culture solution was treated with a glycerol derivative compounds of the type shown in Table 8 and Table 9 below for 1 hour in the culture solution, and then IL-4 (2 ng/ml or 10 ng/ml) was further incubated for 20 hours for STAT6 activity. Thereafter, the culture supernatant was removed for each well, and the remaining cells were lysed with a cell lysis buffer, and then cell lysate was recovered. 90 μl of luciferase reagent was mixed with 10 μl of the recovered cell lysate, and the degree of fluorescence was confirmed using a luminometer.

CCCCC/C=C\C/C=C\CCCCCCCC(=O)OC(COC(C)=O)COC(=O)CCCCCCCCCCCCCCC (stereo not drawn) [EC-18, 1-palmitoyl-2-linoleoyl-3-acetylglycerol]
decrease of STAT3 activity (STAT3 [1]; LPS-treated): about 50% | STAT3 activity_Luciferase activity (average ± deviation) (STAT3 [1]; sample 100 μg/ml for 1 hour, then LPS 1 μg/ml, 18 hours, negative control = 100.00): 393.64 ± 46.12 | reduction of CXCL8 expression (CXCL8 (IL-8)): about 20% | reduction of HL-60 cell migration, result in words (HL-60 cells; Transwell, comparison with negative control group or EC-18 (PLAG)): reduced to a degree similar to that of the negative control group | decrease of IL-6 expression/secretion compared to the LPS-treated group (IL-6; LPS-stimulated): about 30% | IL-6 concentration (average ± deviation) (IL-6; Table 2, sample 100 μg/ml for 1 hour): 0.194 ± 0.011 ng/mL | IL-6 concentration (average ± deviation) (IL-6; Table 3, sample 100 μg/ml for 1 hour): 1.159 ± 0.036 ng/mL | decrease of STAT3 activity compared to the IL-6-treated group (STAT3 [2]): about 25% | STAT3 activity SEAP expression(%) (average ± deviation) (STAT3 [2]; sample 100 μg/ml for 1 hour, then IL-6 5 ng/ml, 24 hours): 173.0 ± 7.9% | IL-4 concentration (average ± deviation) (IL-4): 189.8 ± 38.5 pg/µL | reduction of STAT6 activity (STAT6; IL-4-treated): about 50% | STAT6 activity_Luciferase activity (average ± deviation) (STAT6; Table 9, sample 100 μg/ml for 1 hour, then IL-4 10 ng/ml, 20 hours): 1281.5 ± 26.1

Nc1ccn([C@@H]2O[C@H](CO)[C@@H](O)C2(F)F)c(=O)n1 [Gemcitabine]
increase of neutrophil cell migration compared to the negative control group (HL-60 cells; Gemcitabine-treated THP-1 cells): increased by about twice

IL-6: IL-6 cytokine used to induce STAT3 activity
STAT3 activity SEAP expression(%) (average ± deviation) (STAT3 [2]; IL-6 5 ng/ml alone): 228.8 ± 17.0%

B1: IL-4: IL-4 used to induce STAT6 activity in A549 cells (protein, UniProt P05112 25-153, looked up)
Interleukin-4: HKCDITLQEIIKTLNSLTEQKTLCTELTVTDIFAASKNTTEKETFCRAATVLRQFYSHHEKDTRCLGATAQQFHRHKQLIRFLKRLDRNLWGLAGLNSCPVKEANQSTLENFLERLKTIMREKYSKCSS
STAT6 activity_Luciferase activity (average ± deviation) (STAT6; Table 9, IL-4 alone, concentration printed 10): 2134.5 ± 17.6
